These results are taken from article PMC6066796 (Antiviral Research, 2018).

Like-named read-outs stand apart in the source and are kept apart here.

The subject of assay [1] is recombinant EBOV (Mayinga variant). It is filed as cell-based, Ebola virus. The following applies: read-out: Approximate EC50 against recombinant reporter EBOV variants.
Assay [2] deals with RAVV (Ravn variant). It is filed as cell-based, Ravn virus.
In assay [3] the test system is HeV. To be noted: cited from earlier work.
For assay [4], the system named is NiV (Malaysian genotype). To be noted: cited from earlier work.

As usually defined, the EC50 is the concentration giving half of the maximal effect. For `[N-]=[N+]=N[C@]1(CO)O[C@@H](n2ccc(N)nc2=O)[C@H](O)[C@@H]1O` [R1479, 4′-azidocytidine], the EC50 in assay [1] is about 2 µM; in assay [3], 2.4 µM; in assay [4] it was 1.5 µM. In addition, the “Reduction of infectious RAVV titers” value in assay [2] (at 50 μM) is “over 4 orders of magnitude”.
Turning to “2′-monofluoro-4′-azidocytidine [2′F-4′N3-C]”, the EC50 in assay [1] was 3 to 8 µM. In addition, the “Reduction of infectious RAVV titers” value in assay [2] was “roughly 1.5 orders of magnitude”.
